Assay results: patent US7494980B2, “Antimicrobial peptide and methods of use thereof” (The United States of America as represented by the …, priority 2003, dated 2009)

Tested on: saliva bacteria (facultative anaerobic oral bacteria collected from saliva)
Test: In vitro killing of saliva bacteria
Format: cell-based
Settings: 0.5 h; chlorhexidine 0.12%, positive control; data not shown; read-out: log reduction in facultative anaerobic saliva organisms
Description: The killing assay of saliva bacteria was done according to procedures established by Helmerhorst et al. (1999). Unstimulated saliva was collected from four healthy individuals who had refrained from eating for at least 2 hours. The study was approved by the Institutional Review Board of the Walter Reed Army Institute of Research and informed consent and sample donation consent were obtained from all volunteers. Pooled saliva was initially spun at 500 r.p.m. in an Eppendorf centrifuge (model 5810R) for 10 min at 4° C. to remove epithelial cells and mucus. Saliva bacteria were collected by spinning the supernatant at 4000 r.p.m. for 15 min at 4° C. The pellet was washed three times in 10 mM potassium phosphate buffer (PPB) and suspended in the same buffer to give approximately 1.0×10^7 cells ml^−1. Bacterial suspension (250 μl) was mixed with 250 μl peptide to obtain final peptide concentrations of 12.5, 25, 50, 100 and 200 μg ml^−1. After incubation of the mixture at 37° C. for 30 min, cells were spun down to remove KSL, washed once in PBS having a pH of 7.4 and suspended in PBS before spiral-plating 50 μl of the treated and untreated cells in different dilutions on BAP. The negative control was exposed to buffer only. Saliva bacteria exposed to 0.12% aqueous chlorhexidine served as positive controls. […]

**Q.** With [H]/N=C(\N/C(=N/[H])NCCCCCCNC(=N)NC(=N)Nc1ccc(Cl)cc1)Nc1ccc(Cl)cc1 [chlorhexidine, reference compound] as the molecule, how does the log reduction at 0.12 % read?
**A.** Its log reduction at 0.12 % is greater than 3.
